The test system of the assay is PDE IV. Kind of assay: Test Procedure No. 2: functional inhibition of PDE IV (relaxation of guinea pig tracheal rings precontracted with carbachol). In kind it is cell-based, guinea pig (male Hartley). To be noted: in presence of CI-930 (10 μM). On the procedure: The following standard test is also employed to assess the abilities of compounds to inhibit PDE IV functionally. […]
Tracheal relaxation resulting from the inhibition of PDE-IV or PDE-III was assessed by a method similar to that employed by Harris et al. (1989). […] The functional inhibition of PDE-IV or PDE-III was determined by adding a test compound to the tissue bath in cumulatively increasing concentrations and monitoring the degree of relaxation induced in the continued presence of CI-930 or rolipram (respectively). […] Percent relaxations produced by each concentration of test compound were calculated as a percentage relaxation of tension maintained in the presence of the preincubating PDE inhibitor, relative to the final resting tension determined at the end of each experiment. […]

These results are taken from patent publication US5650444A, “Substituted biphenyl derivatives” (American Home Products Corporation, priority 1995, dated 1997).

The term IC50 denotes the midpoint of a concentration-inhibition curve. Take `COC(=O)c1cccc(-c2ccc(OC)c(OC3CCCC3)c2)c1` [Example 18, 3'-Cyclopentyloxy-4'-methoxy-biphenyl-3-carboxylic acid methyl ester]: the IC50 is 120 nM.
